{"source": "patent US20240109900A1", "about": "“AZABICYCLIC SHP2 INHIBITORS” (IRBM S.P.A., priority 2021, published 2024)", "key": {"[1]": {"biological_target": "SHP-2 enzyme (Met1-Leu525) (Homo sapiens (Human), UniProt Q06124)", "sequence (Q06124 1-525)": "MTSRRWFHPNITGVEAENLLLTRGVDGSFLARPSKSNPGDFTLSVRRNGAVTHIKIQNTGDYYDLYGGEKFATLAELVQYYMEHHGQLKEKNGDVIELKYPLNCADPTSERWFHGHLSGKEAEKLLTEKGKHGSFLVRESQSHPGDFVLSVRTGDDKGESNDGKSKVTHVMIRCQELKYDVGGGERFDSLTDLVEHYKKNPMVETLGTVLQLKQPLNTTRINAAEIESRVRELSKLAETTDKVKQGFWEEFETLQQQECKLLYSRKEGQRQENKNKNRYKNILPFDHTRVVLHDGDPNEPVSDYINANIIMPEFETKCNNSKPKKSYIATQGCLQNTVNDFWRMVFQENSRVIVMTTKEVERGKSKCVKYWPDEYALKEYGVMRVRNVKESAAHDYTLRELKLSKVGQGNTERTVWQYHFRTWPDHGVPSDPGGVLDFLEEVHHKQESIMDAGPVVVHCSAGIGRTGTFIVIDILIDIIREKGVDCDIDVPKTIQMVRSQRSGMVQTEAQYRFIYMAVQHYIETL", "experiment": "SHP2 inhibition enzymatic assay", "assay_type": "biochemical", "details": "0.5 nM SHP-2 activated by 500 nM IRS1 peptide, 75 μM DiFMUP substrate; read-out: SHP2wt-IC50", "how_it_was_run": "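Compounds were preincubated 30 min with 0.5 nM SHP-2 (Met1-Leu525) plus 500 nM IRS1 activating peptide (pH 7.2 HEPES, 5 mM DTT), then 75 μM DiFMUP substrate reacted 30 min at room temperature. After bpV quench, DiFMUP fluorescence gave % inhibition; four-parameter logistic fit yielded IC50.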"}, "[2]": {"tested_on": "ERK phosphorylation in KYSE-520 cells", "experiment": "Phospho-ERK cellular assay", "assay_type": "cell-based", "details": "Homo sapiens, KYSE-520, 2 h, KYSE-520 cells, 2 h at 37° C., phospho-ERK1/2 (Thr202/Tyr204) TR-FRET; read-out: PERK IC50", "how_it_was_run": "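TR-FRET read-out of ERK1/2 Thr202/Tyr204 phosphorylation was taken after overnight antibody incubation at room temperature. Before that, KYSE-520 cells were treated 2 h at 37 °C with compound dilutions and lysed 30 min. Percent inhibition relative to vehicle and cell-free wells was fitted four-parametrically to give IC50.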"}}, "data": [{"smiles": "Cc1c(-c2c[nH]c3nc(N4CC[C@@H]5[C@H](C4)[C@@]5(CN)c4ccccc4F)cnc23)ccc2nn(C)cc12", "note": "[Example 157, ((1S,6R,7R)-3-(7-(2,4-dimethyl-2H-indazol-5-yl)-5H-pyrrolo[2,3-b]pyrazin-3-yl)-7-(2-fluorophenyl)-3-azabicyclo[4.1.0]heptan-7-yl)methanamine]", "values": [{"measurement": "IC50", "setting": "[1]", "value": "< 500", "unit": "nM"}, {"measurement": "IC50", "setting": "[2]", "value": "< 1000", "unit": "nM"}]}, {"smiles": "NC[C@]1(c2ccccc2F)[C@@H]2CCN(c3cnc4c(-c5cccc(-c6cnccn6)c5Cl)n[nH]c4n3)C[C@@H]21", "note": "[Example 158, ((1S,6R,7R)-3-(3-(2-chloro-3-(pyrazin-2-yl)phenyl)-1H-pyrazolo[3,4-b]pyrazin-6-yl)-7-(2-fluorophenyl)-3-azabicyclo[4.1.0]heptan-7-yl)methanamine]", "values": [{"measurement": "IC50", "setting": "[1]", "value": "< 500", "unit": "nM"}, {"measurement": "IC50", "setting": "[2]", "value": "< 1000", "unit": "nM"}]}, {"smiles": "NC[C@]1(c2ccccc2F)[C@@H]2CCN(c3cnc4c(-c5ccc(CO)c6ncccc56)n[nH]c4n3)C[C@@H]21", "note": "[Example 159, (5-(6-((1S,6R,7R)-7-(aminomethyl)-7-(2-fluorophenyl)-3-azabicyclo[4.1.0]heptan-3-yl)-1H-pyrazolo[3,4-b]pyrazin-3-yl)quinolin-8-yl)methanol]", "values": [{"measurement": "IC50", "setting": "[1]", "value": "< 500", "unit": "nM"}, {"measurement": "IC50", "setting": "[2]", "value": "< 1000", "unit": "nM"}]}, {"smiles": "NC[C@]1(c2ccccc2F)[C@@H]2CCN(c3cnc4c(-c5ccc(OC(F)F)c6ncccc56)n[nH]c4n3)C[C@@H]21", "note": "[Example 160, ((1S,6R,7R)-3-(3-(8-(difluoromethoxy)quinolin-5-yl)-1H-pyrazolo[3,4-b]pyrazin-6-yl)-7-(2-fluorophenyl)-3-azabicyclo[4.1.0]heptan-7-yl)methanamine]", "values": [{"measurement": "IC50", "setting": "[1]", "value": "< 500", "unit": "nM"}, {"measurement": "IC50", "setting": "[2]", "value": "< 1000", "unit": "nM"}]}, {"smiles": "Cc1ccc(-c2n[nH]c3nc(N4CC[C@@H]5[C@H](C4)[C@@]5(CN)c4ccccc4F)cnc23)c2ccnn12", "note": "[Example 161, ((1S,6R,7R)-7-(2-fluorophenyl)-3-(3-(7-methylpyrazolo[1,5-a]pyridin-4-yl)-1H-pyrazolo[3,4-b]pyrazin-6-yl)-3-azabicyclo[4.1.0]heptan-7-yl)methanamine]", "values": [{"measurement": "IC50", "setting": "[1]", "value": "< 500", "unit": "nM"}, {"measurement": "IC50", "setting": "[2]", "value": "< 1000", "unit": "nM"}]}, {"smiles": "NC[C@]1(c2ccccc2F)[C@@H]2CCN(c3cnc4c(-c5cccc(Br)c5Cl)n[nH]c4n3)C[C@@H]21", "note": "[Example 162, ((1S,6R,7R)-3-(3-(3-bromo-2-chlorophenyl)-1H-pyrazolo[3,4-b]pyrazin-6-yl)-7-(2-fluorophenyl)-3-azabicyclo[4.1.0]heptan-7-yl)methanamine]", "values": [{"measurement": "IC50", "setting": "[1]", "value": "< 500", "unit": "nM"}, {"measurement": "IC50", "setting": "[2]", "value": "< 1000", "unit": "nM"}]}, {"smiles": "NC[C@]1(c2ccccc2F)[C@@H]2CCN(c3cnc4c(-c5ccnc(N)n5)n[nH]c4n3)C[C@@H]21", "note": "[Example 163, 4-(6-((1S,6R,7R)-7-(aminomethyl)-7-(2-fluorophenyl)-3-azabicyclo[4.1.0]heptan-3-yl)-1H-pyrazolo[3,4-b]pyrazin-3-yl)pyrimidin-2-amine]", "values": [{"measurement": "IC50", "setting": "[1]", "value": "< 500", "unit": "nM"}, {"measurement": "IC50", "setting": "[2]", "value": "< 1000", "unit": "nM"}]}, {"smiles": "CCOc1ccc(-c2n[nH]c3nc(N4CC[C@@H]5[C@H](C4)[C@@]5(CN)c4ccccc4F)cnc23)c2cccnc12", "note": "[Example 164, ((1S,6R,7R)-3-(3-(8-ethoxyquinolin-5-yl)-1H-pyrazolo[3,4-b]pyrazin-6-yl)-7-(2-fluorophenyl)-3-azabicyclo[4.1.0]heptan-7-yl)methanamine]", "values": [{"measurement": "IC50", "setting": "[1]", "value": "< 500", "unit": "nM"}, {"measurement": "IC50", "setting": "[2]", "value": "< 1000", "unit": "nM"}]}, {"smiles": "COC(C)c1ccc(-c2n[nH]c3nc(N4CC[C@@H]5[C@H](C4)[C@@]5(CN)c4ccccc4F)cnc23)c2cccnc12", "note": "(stereo partly drawn) [Example 165, ((1S,6R,7R)-7-(2-fluorophenyl)-3-(3-(8-(1-methoxyethyl)quinolin-5-yl)-1H-pyrazolo[3,4-b]pyrazin-6-yl)-3-azabicyclo[4.1.0]heptan-7-yl)methanamine]", "values": [{"measurement": "IC50", "setting": "[1]", "value": "< 500", "unit": "nM"}, {"measurement": "IC50", "setting": "[2]", "value": "< 1000", "unit": "nM"}]}, {"smiles": "COc1cccc2c(-c3n[nH]c4nc(N5CC[C@@H]6[C@H](C5)[C@@]6(CN)c5ccccc5F)cnc34)ccnc12", "note": "[Example 166, ((1S,6R,7R)-7-(2-fluorophenyl)-3-(3-(8-methoxyquinolin-4-yl)-1H-pyrazolo[3,4-b]pyrazin-6-yl)-3-azabicyclo[4.1.0]heptan-7-yl)methanamine]", "values": [{"measurement": "IC50", "setting": "[1]", "value": "< 500", "unit": "nM"}, {"measurement": "IC50", "setting": "[2]", "value": "< 1000", "unit": "nM"}]}, {"smiles": "NC[C@]1(c2ccccc2F)[C@@H]2CCN(c3cnc4c(-c5ccc6nccnc6c5Cl)n[nH]c4n3)C[C@@H]21", "note": "[Example 167, ((1S,6R,7R)-3-(3-(5-chloroquinoxalin-6-yl)-1H-pyrazolo[3,4-b]pyrazin-6-yl)-7-(2-fluorophenyl)-3-azabicyclo[4.1.0]heptan-7-yl)methanamine]", "values": [{"measurement": "IC50", "setting": "[1]", "value": "< 500", "unit": "nM"}, {"measurement": "IC50", "setting": "[2]", "value": "< 1000", "unit": "nM"}]}, {"smiles": "NC[C@]1(c2ccccc2F)[C@@H]2CCN(c3cnc4c(-c5cccc(-c6ncco6)c5Cl)n[nH]c4n3)C[C@@H]21", "note": "[Example 168, ((1S,6R,7R)-3-(3-(2-chloro-3-(oxazol-2-yl)phenyl)-1H-pyrazolo[3,4-b]pyrazin-6-yl)-7-(2-fluorophenyl)-3-azabicyclo[4.1.0]heptan-7-yl)methanamine]", "values": [{"measurement": "IC50", "setting": "[1]", "value": "< 500", "unit": "nM"}, {"measurement": "IC50", "setting": "[2]", "value": "< 1000", "unit": "nM"}]}, {"smiles": "NC[C@]1(c2ccccc2F)[C@@H]2CCN(c3cnc4c(N5CCCc6ncccc65)n[nH]c4n3)C[C@@H]21", "note": "[Example 169, ((1S,6R,7R)-3-(3-(3,4-dihydro-1,5-naphthyridin-1(2H)-yl)-1H-pyrazolo[3,4-b]pyrazin-6-yl)-7-(2-fluorophenyl)-3-azabicyclo[4.1.0]heptan-7-yl)methanamine]", "values": [{"measurement": "IC50", "setting": "[1]", "value": "< 500", "unit": "nM"}, {"measurement": "IC50", "setting": "[2]", "value": "< 1000", "unit": "nM"}]}, {"smiles": "NC[C@]1(c2ccccc2F)[C@@H]2CCN(c3cnc4c(-c5ccnc(-c6ncco6)c5Cl)n[nH]c4n3)C[C@@H]21", "note": "[Example 170, ((1S,6R,7R)-3-(3-(3-chloro-2-(oxazol-2-yl)pyridin-4-yl)-1H-pyrazolo[3,4-b]pyrazin-6-yl)-7-(2-fluorophenyl)-3-azabicyclo[4.1.0]heptan-7-yl)methanamine]", "values": [{"measurement": "IC50", "setting": "[1]", "value": "< 500", "unit": "nM"}, {"measurement": "IC50", "setting": "[2]", "value": "< 1000", "unit": "nM"}]}, {"smiles": "Cc1cc2ncccc2cc1-c1n[nH]c2nc(N3CC[C@@H]4[C@H](C3)[C@@]4(CN)c3ccccc3F)cnc12", "note": "[Example 171, ((1S,6R,7R)-7-(2-fluorophenyl)-3-(3-(7-methylquinolin-6-yl)-1H-pyrazolo[3,4-b]pyrazin-6-yl)-3-azabicyclo[4.1.0]heptan-7-yl)methanamine]", "values": [{"measurement": "IC50", "setting": "[1]", "value": "< 500", "unit": "nM"}, {"measurement": "IC50", "setting": "[2]", "value": "< 1000", "unit": "nM"}]}, {"smiles": "Cc1c(-c2n[nH]c3nc(N4CC[C@@H]5[C@H](C4)[C@@]5(CN)c4ccccc4F)cnc23)ccc2ncccc12", "note": "[Example 172, ((1S,6R,7R)-7-(2-fluorophenyl)-3-(3-(5-methylquinolin-6-yl)-1H-pyrazolo[3,4-b]pyrazin-6-yl)-3-azabicyclo[4.1.0]heptan-7-yl)methanamine]", "values": [{"measurement": "IC50", "setting": "[1]", "value": "< 500", "unit": "nM"}, {"measurement": "IC50", "setting": "[2]", "value": "< 1000", "unit": "nM"}]}, {"smiles": "Cc1cc(-c2n[nH]c3nc(N4CC[C@@H]5[C@H](C4)[C@@]5(CN)c4ccccc4F)cnc23)cc2cccnc12", "note": "[Example 173, ((1S,6R,7R)-7-(2-fluorophenyl)-3-(3-(8-methylquinolin-6-yl)-1H-pyrazolo[3,4-b]pyrazin-6-yl)-3-azabicyclo[4.1.0]heptan-7-yl)methanamine]", "values": [{"measurement": "IC50", "setting": "[1]", "value": "< 500", "unit": "nM"}, {"measurement": "IC50", "setting": "[2]", "value": "< 1000", "unit": "nM"}]}, {"smiles": "NC[C@]1(c2ccccc2F)[C@@H]2CCN(c3cnc4c(-c5cc(F)c6ncccc6c5)n[nH]c4n3)C[C@@H]21", "note": "[Example 174, ((1S,6R,7R)-7-(2-fluorophenyl)-3-(3-(8-fluoroquinolin-6-yl)-1H-pyrazolo[3,4-b]pyrazin-6-yl)-3-azabicyclo[4.1.0]heptan-7-yl)methanamine]", "values": [{"measurement": "IC50", "setting": "[1]", "value": "< 500", "unit": "nM"}, {"measurement": "IC50", "setting": "[2]", "value": "< 1000", "unit": "nM"}]}]}
